The values that follow come from patent publication US20250311759A1, “ORGANIC COMPOUNDS” (GIVAUDAN SA, priority 2022, published 2025).

Type in all cases: in vivo
The subject of assay [1] is sensory panel. Nature of the assay: Salt enhancement in aqueous NaCl solution, sensory panel. The note with it: for taste description versus 0.5% NaCl solution: 50 ppm in 0.5% NaCl. An excerpt:
Two aqueous solutions have been prepared: • A) 0.3% NaCl, and • B) 0.3% NaCl and 100 ppm of 1H-imidazole.
The solutions were tasted by a sensory panel. Solution A was described as “salty”.
Two aqueous solutions have been prepared: • A) 0.5% NaCl, and • B) 0.5% NaCl and 50 of ppm of 4-methyl-1H-imidazole.
The solutions were tasted by a sensory panel. Solution A was described as “salty”. Solution B was described as more salty in comparison to solution A.
Two aqueous solutions have been prepared: • A) 0.5% NaCl, and • B) 0.5% NaCl and 50 ppm of (2E)-3-(1H-imidazol-4-yl)prop-2-enoic acid (urocanic acid).
The following aqueous solutions have been prepared: • A) 0.3% NaCl, • B) 0.3% NaCl and 90 ppm of 2-(1H-imidazol-4-yl)acetic acid, and • C) 0.3% NaCl and 80 ppm of benzimidazole. • The solutions were tasted by a sensory panel. Solution A was described as “salty”.

Assay [2] deals with sensory panel. Nature of the assay: Bitter masking in aqueous KCl solution, sensory panel. An excerpt:
Two aqueous solutions have been prepared: • A) 0.3% KCl, and • B) 0.3% KCl and 70 ppm of 1H-imidazole.
(§1) The solutions were tasted by a sensory panel.
The following aqueous solutions have been prepared: • A) 0.3% KCl, and • B) 0.3% KCl and 100 ppm of 2-(1H-imidazol-4-yl)acetic acid, and • C) 0.3% KCl and 100 ppm of benzimidazole.

In assay [3] the test system is sensory panel. Description: Effect on commercially available cheese sauce, sensory panel. An excerpt: The effect of 1H-imidazole on a commercially available cheese sauce was explored.
Therefore, a cheese sauce has been compared by a sensory panel with a sample of the sauce further comprising 70 ppm of 1H-imidazole.
The effect of 2-(1H-imidazol-4-yl)acetic acid on a commercially available cheese sauce was explored. Therefore, a cheese sauce has been compared by a sensory panel with a sample of the sauce further comprising 50 ppm of 2-(1H-imidazol-4-yl)acetic acid.

The subject of assay [4] is sensory panel. Description: Effect on corn curls with cheese flavor, sensory panel. An excerpt: Corn curls with cheese flavor with and without addition of 1H-imidazole have been compared by a sensory panel.
Corn curls with cheese flavor with addition of 2-(1H-imidazol-4-yl)acetic acid or benzimidazole and without have been compared by a sensory panel.

Assay [5] concerns sensory panel. Description: Effect on model broth base, sensory panel.
Description: A model broth base, comprising 0.3% of NaCl was compared with a sample further comprising 100 ppm of 1H-imidazole.
as §1
A model broth base, comprising 0.3% of NaCl was compared with a sample further comprising 70 ppm of 2-(1H-imidazol-4-yl)acetic acid, and 100 ppm of benzimidazole, respectively.
The solutions were tasted by a sensory panel. […] The solution comprising benzimidazole was preferred.

Assay [6] concerns sensory panel. Description: Effect on commercially available mayonnaise, sensory panel. The note with it: 70 ppm in mayonnaise. An excerpt: Samples of commercially available mayonnaise with and without addition of 1H-imidazole have been compared by a sensory panel.
Samples of commercially available mayonnaise with addition of 2-(1H-imidazol-4-yl)acetic acid or benzimidazole and without have been compared by a sensory panel.

The subject of assay [7] is sensory panel. Description: Effect on potato chips, sensory panel. The note with it: 70 ppm, potato chips with 1.5% salt. An excerpt:
Potato chips with 1.5% salt have been tasted by a sensory panel with and without 1H-imidazole.

In assay [8] the test system is sensory panel. Nature of the assay: Umami enhancement in savoury model solution (NaCl, MSG, Ribotides), sensory panel. As to conditions: 100 ppm in 0.5% NaCl, 0.03% MSG, 0.007% Ribotides. An excerpt:
Two aqueous solutions have been prepared: • A) 0.5% NaCl, 0.03% MSG, 0.007% Ribotides, and • B) 0.5% NaCl, 0.03% MSG, 0.007% Ribotides and 100 ppm of 1H-imidazole.
The solutions were tasted by a sensory panel. Solution A is a model solution for savoury taste, containing MSG (monosodium glutamate) and Ribotides (IMP/GMP, 50/50 mixture) as savoury taste enhancer.

The subject of assay [9] is sensory panel. Description: Effect on soy based vegan burger, sensory panel. The note with it: 70 ppm in soy based vegan burger; initial peak and last phase of salt perception. An excerpt:
Soy based vegan burgers with and without 1H-imidazole have been tasted by a sensory panel.

Assay [10] has as its system sensory panel. Nature of the assay: Effect on commercially available ketchup, sensory panel. An excerpt:
Samples of commercially available ketchup with and without addition of 2-(1H-imidazol-4-yl)acetic acid or benzimidazole have been compared by a sensory panel.

Where [11] appears, read: 100 ppm in model broth base comprising 0.3% NaCl.
Setting [12] is: 150 ppm on corn curls with cheese flavor.

Regarding `O=C(O)/C=C/c1c[nH]cn1` [urocanic acid, (2E)-3-(1H-imidazol-4-yl)prop-2-enoic acid], the “taste description versus 0.5% NaCl solution” value in assay [1] is “more salty”.
For the compound `c1c[nH]cn1` [1H-imidazole], the “taste description versus 0.3% KCl solution” value in assay [2] (70 ppm in 0.3% KCl) is “less metallic and more salty”. Further, the “taste description versus cheese sauce” value in assay [3] (70 ppm in cheese sauce) is “more mineral and salty”. In addition, the “taste description versus corn curls without compound” value in assay [4] (100 ppm on corn curls with cheese flavor) was “saltier, and the rich profile was enhanced”. Further, the “taste description versus model broth base” value in assay [5] (setting [11]) is “more mineral and salty as well as more umami”. Further, the “taste description versus pure mayonnaise” value in [6] is “clearly more salty and had a stronger acetic acid character”. Moreover, the “taste description versus potato chips without compound” value in assay [7] is “higher salty impact and a lingering effect”. In addition, the “taste description versus savoury model solution” value in [8] was “strong boost of saltiness and umami”. Also, the “taste description versus burger without compound” value in [9] was “more salty”. The “taste description versus 0.3% NaCl solution” value in assay [1] (100 ppm in 0.3% NaCl) was “clearly more salty with a mineralic note, low acidity, some astringency and freshness”.
Turning to `O=C(O)Cc1c[nH]cn1` [2-(1H-imidazol-4-yl)acetic acid], in assay [2] (100 ppm in 0.3% KCl), the “panel preference / KCl masker rating” value is given as “preferred over solution C”; the “taste description versus 0.3% KCl solution” value is “less bitter, less metallic and more salty”. In assay [3] (50 ppm in cheese sauce), the “taste description versus cheese sauce” value is “preferred, having more saltiness and umami character”. The “taste description versus corn curls without compound” value in [4] (setting [12]) was “saltier, and the rich profile was enhanced”. Moreover, in assay [5] (70 ppm in model broth base comprising 0.3% NaCl), the “taste description versus model broth base” value was “more mineral and salty”. Also, in assay [6], the “taste description versus pure mayonnaise” value is “clearly more salty with a less sour impression”. Further, the “taste description versus pure ketchup” value in assay [10] (100 ppm in ketchup) is “clearly more salty, sour lingering and less sweet”. For the same compound, the “taste description versus 0.3% NaCl solution” value in assay [1] (90 ppm in 0.3% NaCl) is “clearly more salty with a minearlic note”.
As to `Cc1c[nH]cn1` [4-methyl-1H-imidazole], the “taste description versus 0.5% NaCl solution” value in [1] is given as “more salty”.
`c1ccc2[nH]cnc2c1` [benzimidazole]: the “taste description versus 0.3% KCl solution” value in assay [2] (100 ppm in 0.3% KCl) was “less bitter, less metallic and more salty”. The “taste description versus corn curls without compound” value in assay [4] (setting [12]) is “saltier, and the rich profile was enhanced”. In addition, the “panel preference in broth” value in [5] (100 ppm benzimidazole versus 70 ppm 2-(1H-imidazol-4-yl)acetic acid in model broth base) was “preferred”. In assay [5] (setting [11]), the “taste description versus model broth base” value is “more mineral and salty”. Also, in [6], the “taste description versus pure mayonnaise” value is given as “clearly more salty with a less sour impression”. In addition, the “taste description versus pure ketchup” value in assay [10] (70 ppm in ketchup) is given as “clearly more salty”. In addition, the “taste description versus 0.3% NaCl solution” value in [1] (80 ppm in 0.3% NaCl) is “clearly more salty with a sour fresh background”.
